Drawing on PubChem BioAssay AID192 (DTP/NCI, 2004), this text covers T/C for 25 molecules.

For the test, the system named is BDF1 mice, B16 melanoma ip, median survival T/C. Put plainly: NCI In Vivo Anticancer Drug Screen. Data for tumor model B16 Melanoma (intraperitoneal) in B6D2F1 (BDF1) mice. The note with it: endpoint: median survival time, higher = longer survival. On the procedure:
The antitumor activity of compounds was measured in mice bearing transplantable tumors. Survival or tumor size were measured and the results are expressed as the measurement made in the treated group (T) divided by the measurement made in the vehicle treated control group (C). The tumor model used in this assay is B16 Melanoma (intraperitoneal) in B6D2F1 (BDF1) mice

[1] abbreviates: dose: 6.25 mg/kg/injection, schedule: Q01DX009 (ip), vehicle: saline.
The mark [2] stands for this setting: dose: 100.0 mg/kg/injection, schedule: Q01DX009 (ip), vehicle: saline with Tween-80.
Setting [3] is: dose: 100.0 mg/kg/injection, schedule: Q01DX009 (ip), vehicle: Klucel (hydroxypropylcellulose) (HPC).
Setting [4] is: dose: 200.0 mg/kg/injection, schedule: Q01DX009 (ip), vehicle: Klucel (hydroxypropylcellulose) (HPC).
The mark [5] stands for this setting: dose: 12.5 mg/kg/injection, schedule: Q01DX009 (ip), vehicle: Klucel (hydroxypropylcellulose) (HPC).
Setting [6] is: dose: 25.0 mg/kg/injection, schedule: Q01DX009 (ip), vehicle: Klucel (hydroxypropylcellulose) (HPC).
Setting [7] is: dose: 50.0 mg/kg/injection, schedule: Q01DX009 (ip), vehicle: Klucel (hydroxypropylcellulose) (HPC).
The mark [8] stands for this setting: dose: 12.5 mg/kg/injection, schedule: Q01DX009 (ip), vehicle: saline.
Where [9] appears, read: dose: 25.0 mg/kg/injection, schedule: Q01DX009 (ip), vehicle: saline.
Setting [10] is: dose: 50.0 mg/kg/injection, schedule: Q01DX009 (ip), vehicle: saline.
[11] abbreviates: dose: 100.0 mg/kg/injection, schedule: Q01DX009 (ip), vehicle: saline.
Where [12] appears, read: dose: 12.5 mg/kg/injection, schedule: Q04DX003 (ip), vehicle: Klucel (hydroxypropylcellulose) (HPC).
[13] abbreviates: dose: 25.0 mg/kg/injection, schedule: Q04DX003 (ip), vehicle: Klucel (hydroxypropylcellulose) (HPC).

The structures appear in SMILES notation. Values joined by “and” are separate entries in the source; they are usually repeats but may differ in a detail not shown here. Identical values can stand only once. Inconclusive results and toxic doses are left out.

As to `Cc1cc(C)cc(OC(=O)Nc2ccccc2Cl)c1`, the T/C reads like this: (dose: 100.0 mg/kg/injection, schedule: Q04DX003 (ip), vehicle: Klucel (hydroxypropylcellulose) (HPC)) 96 % of control; (dose: 200.0 mg/kg/injection, schedule: Q04DX003 (ip), vehicle: Klucel (hydroxypropylcellulose) (HPC)) 96 % of control; (dose: 400.0 mg/kg/injection, schedule: Q04DX003 (ip), vehicle: Klucel (hydroxypropylcellulose) (HPC)) 106 % of control.
As to `CC1CC(C)(C)C(C[NH-])C1[NH-].[Cl][Pt+2][Cl]` (stereo unspecified), the T/C is, setting by setting: (dose: 4.0 mg/kg/injection, schedule: Q01DX009 (ip), vehicle: other) 153 % of control; (dose: 8.0 mg/kg/injection, schedule: Q01DX009 (ip), vehicle: other) 150 % of control; (dose: 16.0 mg/kg/injection, schedule: Q01DX009 (ip), vehicle: other) 112 % of control.
As to `COC(=O)C(C#N)=C(C)C`, the T/C reads like this: (dose: 10.0 mg/kg/injection, schedule: Q01DX009 (ip), vehicle: saline with Tween-80) 100 % of control; (dose: 20.0 mg/kg/injection, schedule: Q01DX009 (ip), vehicle: saline with Tween-80) 98 % of control; (dose: 40.0 mg/kg/injection, schedule: Q01DX009 (ip), vehicle: saline with Tween-80) 94 % of control.
Turning to `COc1cccc2c1C(=O)c1c(O)c3c(c(O)c1C2=O)C[C@@](O)(C(=O)CN1CCOCC1)C[C@@H]3OC1CC(N)C(O)C(C)O1` (stereo partly specified), the T/C was 159 % of control (dose: 3.13 mg/kg/injection, schedule: Q01DX009 (ip), vehicle: water); 153 % of control (dose: 6.25 mg/kg/injection, schedule: Q01DX009 (ip), vehicle: water); 157 % of control (dose: 12.5 mg/kg/injection, schedule: Q01DX009 (ip), vehicle: water); 157 % of control (dose: 25.0 mg/kg/injection, schedule: Q01DX009 (ip), vehicle: water).
Take `COc1ccc2c(=O)c(C)c(C)oc2c1CN1CCOCC1`: the T/C was 104 % of control (dose: 0.39 mg/kg/injection, schedule: Q01DX009 (ip), vehicle: saline); 114 % of control (dose: 0.78 mg/kg/injection, schedule: Q01DX009 (ip), vehicle: saline); 108 % of control (dose: 1.56 mg/kg/injection, schedule: Q01DX009 (ip), vehicle: saline); 98 % of control (dose: 3.12 mg/kg/injection, schedule: Q01DX009 (ip), vehicle: saline); 115 % of control under setting [1].
Turning to `COC(=O)C12Oc3ccc(-c4ccc5c(c4O)C(O)=C4C(=O)CC(C)C(O)C4(C(=O)OC)O5)c(O)c3C(O)=C1C(=O)CC(C)C2O` (stereo unspecified), the T/C runs as follows: (dose: 0.15 mg/kg/injection, schedule: Q01DX009 (ip), vehicle: saline with Tween-80) 98 % of control; (dose: 0.31 mg/kg/injection, schedule: Q01DX009 (ip), vehicle: saline with Tween-80) 93 % of control; (dose: 0.62 mg/kg/injection, schedule: Q01DX009 (ip), vehicle: saline with Tween-80) 104 % of control; (dose: 1.25 mg/kg/injection, schedule: Q01DX009 (ip), vehicle: saline with Tween-80) 95 % of control.
In the case of `O=c1[nH]cnc2ccc(Cl)cc12`, the T/C is 102 % of control (dose: 37.5 mg/kg/injection, schedule: Q01DX009 (ip), vehicle: saline with Tween-80) and 102 % of control (dose: 75.0 mg/kg/injection, schedule: Q01DX009 (ip), vehicle: saline with Tween-80).
With `S=C(NC1CCCCC1)NC1CCCCC1`, the T/C runs as follows: under setting [2], 95 % of control; (dose: 200.0 mg/kg/injection, schedule: Q01DX009 (ip), vehicle: saline with Tween-80) 114 % of control; (dose: 400.0 mg/kg/injection, schedule: Q01DX009 (ip), vehicle: saline with Tween-80) 90 % of control.
With `Oc1ccc(C2C=CCC2)cc1C1C=CCC1` (stereo unspecified), the T/C was 99 % of control and 100 % of control under setting [3]; 89 % of control and 96 % of control under setting [4]; 100 % of control and 107 % of control (dose: 400.0 mg/kg/injection, schedule: Q01DX009 (ip), vehicle: Klucel (hydroxypropylcellulose) (HPC)).
As to `O=[N+]([O-])c1cc(C(F)(F)F)ccc1F`, the T/C is 101 % of control under setting [5], 109 % of control under setting [6], 109 % of control under setting [7] and 108 % of control under setting [3].
With `OC(c1ccccc1)(c1ccccc1)C1CC1c1ccncc1` (stereo unspecified), the T/C is 113 % of control under setting [8], 95 % of control under setting [9], 102 % of control under setting [10] and 107 % of control under setting [11].
On to `CN(C)c1ccc2nc3ccc(=[N+](C)C)cc-3sc2c1`, for which the T/C was 86 % of control under setting [1] and 93 % of control under setting [8].
As for `Cc1cc(C)[nH]c(=O)n1`, the T/C under setting [9] was 115 % of control, the T/C under setting [10] is 101 % of control and the T/C under setting [11] is 102 % of control.
Regarding `CCO/C=C1\SC(=S)N(c2ccccc2OC)C1=O`, the T/C reads like this: under setting [5], 109 % of control; under setting [6], 99 % of control and 117 % of control; under setting [7], 107 % of control and 111 % of control; under setting [3], 86 % of control and 107 % of control; under setting [4], 111 % of control.
For `O=Cc1ccc(/C=C2\C=Cc3ccccc32)cc1`, the T/C under setting [2] is 97 % of control.
Consider `NC(=S)N/N=C\c1nccc2c(C(F)(F)F)cccc12`, for which the T/C is 105 % of control (dose: 1.5 mg/kg/injection, schedule: Q04DX003 (ip), vehicle: saline with Tween-80); 110 % of control (dose: 3.0 mg/kg/injection, schedule: Q04DX003 (ip), vehicle: saline with Tween-80); 100 % of control (dose: 6.0 mg/kg/injection, schedule: Q04DX003 (ip), vehicle: saline with Tween-80); 102 % of control (dose: 12.0 mg/kg/injection, schedule: Q04DX003 (ip), vehicle: saline with Tween-80).
Consider `Cc1cc(C)c(CN)cc1CN`, for which the T/C is, setting by setting: (dose: 25.0 mg/kg/injection, schedule: Q01DX009 (ip), vehicle: saline with Tween-80) 108 % of control; (dose: 50.0 mg/kg/injection, schedule: Q01DX009 (ip), vehicle: saline with Tween-80) 112 % of control.
For the molecule `Cc1ccccc1NC(=S)N(C)C`, the T/C runs as follows: (dose: 6.25 mg/kg/injection, schedule: Q04DX003 (ip), vehicle: Klucel (hydroxypropylcellulose) (HPC)) 96 % of control; under setting [12], 100 % of control; under setting [13], 88 % of control and 100 % of control.
On to `CC(=O)C(Cl)C(=O)c1c(C)[nH]n(-c2ccccc2)c1=O` (stereo unspecified), for which the T/C under setting [6] is 108 % of control and the T/C under setting [7] was 98 % of control.
Regarding `CC[P+](CC)(CC)c1ccccc1`, the T/C under setting [1] is 101 % of control, the T/C under setting [8] was 110 % of control and the T/C under setting [9] was 111 % of control.
Regarding `O=S(=O)(O)O.[W]`, the T/C (dose: 0.75 mg/kg/injection, schedule: Q01DX009 (ip), vehicle: saline) is 87 % of control and 100 % of control; the T/C (dose: 1.5 mg/kg/injection, schedule: Q01DX009 (ip), vehicle: saline) is 91 % of control and 101 % of control.
Turning to `O=C1c2ccccc2C(Cl)=C(Cl)C1(Cl)Cl`, the T/C is 87 % of control under setting [12] and 92 % of control under setting [13].
For `CC[C@@]1(O)C(=O)OCc2c1cc1n(c2=O)Cc2cc3cc(OC)ccc3nc2-1`, the T/C (dose: 0.39 mg/kg/injection, schedule: Q01DX009 (ip), vehicle: other) is 157 % of control and the T/C (dose: 0.79 mg/kg/injection, schedule: Q01DX009 (ip), vehicle: other) is 174 % of control.
For `Nc1ncnc2c1ccn2C1OC(CO)C(O)C1O` (stereo unspecified), the T/C is 107 % of control (dose: 0.32 mg/kg/injection, schedule: Q01DX009 (ip), vehicle: saline); 91 % of control (dose: 0.5 mg/kg/injection, schedule: Q01DX009 (ip), vehicle: Klucel (hydroxypropylcellulose) (HPC)); 120 % of control (dose: 0.63 mg/kg/injection, schedule: Q01DX009 (ip), vehicle: saline); 99 % of control (dose: 1.0 mg/kg/injection, schedule: Q01DX009 (ip), vehicle: Klucel (hydroxypropylcellulose) (HPC)); 90 % of control (dose: 2.0 mg/kg/injection, schedule: Q01DX009 (ip), vehicle: Klucel (hydroxypropylcellulose) (HPC)).
Regarding `CC1CN(CCC#N)CC(C)O1` (stereo unspecified), the T/C reads like this: under setting [11], 95 % of control; (dose: 200.0 mg/kg/injection, schedule: Q01DX009 (ip), vehicle: saline) 95 % of control.
